In PubChem BioAssay (NCI):
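GI50: concentration for 50% inhibition of growth. TGI: concentration producing complete growth inhibition.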

Assays:
Assay in all cases: NCI anticancer screen, dose series, 384-well format
CAKI-1 renal = test system: CAKI-1 renal
COLO 205 colon = test system: COLO 205 colon
DU-145 prostate = test system: DU-145 prostate
MCF7 breast = test system: MCF7 breast
NCI-H23 lung = test system: NCI-H23 lung
M14 melanoma = test system: M14 melanoma
HCT-15 colon = test system: HCT-15 colon
SK-MEL-28 melanoma = test system: SK-MEL-28 melanoma
SNB-75 CNS = test system: SNB-75 CNS
SF-295 CNS = test system: SF-295 CNS
RPMI-8226 leukemia = test system: RPMI-8226 leukemia
ACHN renal = test system: ACHN renal
SF-539 CNS = test system: SF-539 CNS
786-0 renal = test system: 786-0 renal
BT-549 breast = test system: BT-549 breast
MDA-MB-468 breast = test system: MDA-MB-468 breast
OVCAR-4 ovarian = test system: OVCAR-4 ovarian
HOP-92 NSCLC = test system: HOP-92 NSCLC
SN12C renal = test system: SN12C renal
KM12 colon = test system: KM12 colon
SF-268 CNS = test system: SF-268 CNS
HS 578T breast = test system: HS 578T breast
OVCAR-3 ovarian = test system: OVCAR-3 ovarian
A549 NSCLC = test system: A549 NSCLC
IGROV1 ovarian = test system: IGROV1 ovarian
NCI/ADR-RES ovarian = test system: NCI/ADR-RES ovarian
HOP-62 NSCLC = test system: HOP-62 NSCLC
NCI-H460 NSCLC = test system: NCI-H460 NSCLC
TK-10 renal = test system: TK-10 renal
SNB-19 CNS = test system: SNB-19 CNS
HL-60(TB) leukemia = test system: HL-60(TB) leukemia
HCT-116 colon = test system: HCT-116 colon
SR leukemia = test system: SR leukemia
MALME-3M melanoma = test system: MALME-3M melanoma
PC-3 prostate = test system: PC-3 prostate
CCRF-CEM leukemia = test system: CCRF-CEM leukemia
MDA-MB-231 breast = test system: MDA-MB-231 breast
NCI-H226 lung = test system: NCI-H226 lung
OVCAR-8 ovarian = test system: OVCAR-8 ovarian
RXF 393 renal = test system: RXF 393 renal
OVCAR-5 ovarian = test system: OVCAR-5 ovarian
NCI-H322M lung = test system: NCI-H322M lung
T-47D breast = test system: T-47D breast
UACC-62 melanoma = test system: UACC-62 melanoma
MOLT-4 leukemia = test system: MOLT-4 leukemia
UACC-257 melanoma = test system: UACC-257 melanoma
HT29 colon = test system: HT29 colon
SK-MEL-5 melanoma = test system: SK-MEL-5 melanoma
U251 glioblastoma = test system: U251 glioblastoma
SK-OV-3 ovarian = test system: SK-OV-3 ovarian
SW-620 colon = test system: SW-620 colon
EKVX NSCLC = test system: EKVX NSCLC
A498 renal = test system: A498 renal
NCI-H522 lung = test system: NCI-H522 lung
UO-31 renal = test system: UO-31 renal
MDA-MB-435 melanoma = test system: MDA-MB-435 melanoma
LOX IMVI melanoma = test system: LOX IMVI melanoma

COc1cc(N2CCC(N3CCN(C)CC3)CC2)ccc1Nc1ncc(Cl)c(Nc2ccccc2P(C)(C)=O)n1
GI50 (CAKI-1 renal): 2.38 µM
TGI (CAKI-1 renal): 6.28 µM
GI50 (COLO 205 colon): 1.65 µM
TGI (COLO 205 colon): 4 µM
GI50 (DU-145 prostate): 2.5 µM
TGI (DU-145 prostate): 10.5 µM
GI50 (MCF7 breast): 2.07 µM
TGI (MCF7 breast): > 100 µM
GI50 (NCI-H23 lung): 1.87 µM
TGI (NCI-H23 lung): 5.19 µM
GI50 (M14 melanoma): 3.48 µM
TGI (M14 melanoma): > 100 µM
GI50 (HCT-15 colon): 5.29 µM
TGI (HCT-15 colon): > 100 µM
GI50 (SK-MEL-28 melanoma): > 100 µM
TGI (SK-MEL-28 melanoma): > 100 µM
GI50 (SNB-75 CNS): 2.75 µM
TGI (SNB-75 CNS): 6.73 µM
GI50 (SF-295 CNS): 2.92 µM
TGI (SF-295 CNS): > 29.5 µM
GI50 (RPMI-8226 leukemia): 1.77 µM
TGI (RPMI-8226 leukemia): 5.38 µM
GI50 (ACHN renal): 3.21 µM
TGI (ACHN renal): > 43.9 µM
GI50 (SF-539 CNS): 1.97 µM
TGI (SF-539 CNS): 4.23 µM
GI50 (786-0 renal): 3.22 µM
TGI (786-0 renal): > 43.8 µM
GI50 (BT-549 breast): 2.28 µM
TGI (BT-549 breast): 5.08 µM
GI50 (MDA-MB-468 breast): 2.01 µM
TGI (MDA-MB-468 breast): 6.18 µM
GI50 (OVCAR-4 ovarian): 2.41 µM
TGI (OVCAR-4 ovarian): 8.64 µM
GI50 (HOP-92 NSCLC): 1.17 µM
TGI (HOP-92 NSCLC): 3 µM
GI50 (SN12C renal): 2.3 µM
TGI (SN12C renal): 11.1 µM
GI50 (KM12 colon): 3.74 µM
TGI (KM12 colon): > 100 µM
GI50 (SF-268 CNS): 2.38 µM
TGI (SF-268 CNS): > 25.7 µM
GI50 (HS 578T breast): 1.86 µM
TGI (HS 578T breast): 4.89 µM
GI50 (OVCAR-3 ovarian): 2.22 µM
TGI (OVCAR-3 ovarian): > 28.5 µM
GI50 (A549 NSCLC): 2.1 µM
TGI (A549 NSCLC): > 23.4 µM
GI50 (IGROV1 ovarian): 1.18 µM
TGI (IGROV1 ovarian): 3.7 µM
GI50 (NCI/ADR-RES ovarian): > 100 µM
TGI (NCI/ADR-RES ovarian): > 100 µM
GI50 (HOP-62 NSCLC): 2.33 µM
TGI (HOP-62 NSCLC): > 50.2 µM
GI50 (NCI-H460 NSCLC): 4.35 µM
TGI (NCI-H460 NSCLC): > 100 µM
GI50 (TK-10 renal): 3.92 µM
TGI (TK-10 renal): > 100 µM
GI50 (SNB-19 CNS): 5.97 µM
TGI (SNB-19 CNS): > 100 µM
GI50 (HL-60(TB) leukemia): 3.35 µM
TGI (HL-60(TB) leukemia): > 35.6 µM
GI50 (HCT-116 colon): 2.82 µM
TGI (HCT-116 colon): > 77 µM
GI50 (SR leukemia): 0.0248 µM
TGI (SR leukemia): 0.0545 µM
GI50 (MALME-3M melanoma): 3.09 µM
TGI (MALME-3M melanoma): > 66.9 µM
GI50 (PC-3 prostate): 5.55 µM
TGI (PC-3 prostate): > 100 µM
GI50 (CCRF-CEM leukemia): 3.45 µM
TGI (CCRF-CEM leukemia): 9.7 µM
GI50 (MDA-MB-231 breast): 2.03 µM
TGI (MDA-MB-231 breast): 6.47 µM
GI50 (NCI-H226 lung): 0.49 µM
TGI (NCI-H226 lung): 2.53 µM
GI50 (OVCAR-8 ovarian): 6.55 µM
TGI (OVCAR-8 ovarian): > 100 µM
GI50 (RXF 393 renal): 2.09 µM
TGI (RXF 393 renal): 4.52 µM
GI50 (OVCAR-5 ovarian): 2.39 µM
TGI (OVCAR-5 ovarian): > 46.9 µM
GI50 (NCI-H322M lung): 2.08 µM
TGI (NCI-H322M lung): 6.39 µM
GI50 (T-47D breast): > 25.8 µM
TGI (T-47D breast): > 100 µM
GI50 (UACC-62 melanoma): 3.5 µM
TGI (UACC-62 melanoma): > 100 µM
GI50 (MOLT-4 leukemia): 1.9 µM
TGI (MOLT-4 leukemia): 4.1 µM
GI50 (UACC-257 melanoma): > 100 µM
TGI (UACC-257 melanoma): > 100 µM
GI50 (HT29 colon): 1.11 µM
TGI (HT29 colon): > 100 µM
GI50 (SK-MEL-5 melanoma): 4.72 µM
TGI (SK-MEL-5 melanoma): > 100 µM
GI50 (U251 glioblastoma): 6.2 µM
TGI (U251 glioblastoma): > 100 µM
GI50 (SK-OV-3 ovarian): 2.45 µM
TGI (SK-OV-3 ovarian): 5.89 µM
GI50 (SW-620 colon): 4.95 µM
TGI (SW-620 colon): > 100 µM
GI50 (EKVX NSCLC): 1.46 µM
TGI (EKVX NSCLC): 3.48 µM
GI50 (A498 renal): 2.32 µM
TGI (A498 renal): 6.1 µM
GI50 (NCI-H522 lung): 1.16 µM
TGI (NCI-H522 lung): 4.17 µM
GI50 (UO-31 renal): 4.2 µM
TGI (UO-31 renal): > 62 µM
GI50 (MDA-MB-435 melanoma): 25.5 µM
TGI (MDA-MB-435 melanoma): > 100 µM
GI50 (LOX IMVI melanoma): 3.07 µM
TGI (LOX IMVI melanoma): 17.8 µM
